Counter-ions that a name gives are not always drawn. Like-named read-outs stand apart in the source and are kept apart here.
Assay: Chemical stability (HPLC) after storage at 70° C.
Type: physicochemical
Description: Sample Preparation (Table 12): Crystalline (S)-1′-(6-((2-amino-3-chloropyridin-4-yl)thio)-1,2,4-triazin-3-yl)-1,3-dihydrospiro[indene-2,4′-piperidin]-1-amine free base hemihydrate (Form 1)—Control: Compound (15.46 mg) was weighed into a 50 mL amber volumetric flask. Methanol (approximately 35 mL) was added to the flask, sonicated 4 minutes with intermittent swirling, equilibrated to room temperature, brought to volume with methanol and mixed well with repeated inversions of the flask. Crystalline (S)-1′-(6-((2-amino-3-chloropyridin-4-yl)thio)-1,2,4-triazin-3-yl)-1,3-dihydrospiro[indene-2,4′-piperidin]-1-amine free base hemihydrate (Form 1)—70° C./5% relative humidity (“RH”)/1 week: Compound (14.83 mg) was weighed into a 50 mL amber volumetric flask. Methanol (approximately 35 mL) was added to the flask, sonicated 4 minutes with intermittent swirling, equilibrated to room temperature, brought to volume with methanol and mixed well with repeated inversions of the flask. Crystalline (S)-1′-(6-((2-amino-3-chloropyridin-4-yl)thio)-1,2,4-triazin-3-yl)-1,3-dihydrospiro[indene-2,4′-piperidin]-1-amine free base hemihydrate (Form 1)—70° C./75% RH/1 week: Compound (14.99 mg) was weighed into a 50 mL amber volumetric flask. Methanol (approximately 35 mL) was added to the flask, sonicated 4 minutes with intermittent swirling, equilibrated to room temperature, brought to volume with methanol and mixed well with repeated inversions to the flask.
Chemical stability (HPLC) (Table 12): A Waters Acquity H-Class instrument was used with a Waters XSelect HSS T3 Column (100 angstrom, 4.6×150 mm, 5 μm). The column temperature was set to 20° C., the UV wavelength set to 254 nm, the injection volume was 10 μL, with a flow rate of 1.0 mL/min. 10 mM ammonium acetate adjusted to pH 4.8 was used as a mobile phase A, and acetonitrile was used as mobile phase B. The gradient method was set up to achieve 15% mobile phase B at 0 minutes, 95% mobile phase B at 17 minutes—held until 22 minutes, 15% mobile phase.
70° C./75% RH Sample: about 20 mg of crystalline anhydrous (S)-1′-(6-((2-amino-3-chloropyridin-4-yl)thio)-1,2,4-triazin-3-yl)-1,3-dihydrospiro[indene-2,4′-piperidin]-1-amine mono succinate salt Form 1 was placed in an open amber vial in the 70° C./75% RH chamber 70° C./5% RH Sample: about 20 mg crystalline anhydrous (S)-1′-(6-((2-amino-3-chloropyridin-4-yl)thio)-1,2,4-triazin-3-yl)-1,3-dihydrospiro[indene-2,4′-piperidin]-1-amine mono succinate salt Form 1 was placed in a closed amber vial with the cap taped in a 70° C. chamber with uncontrolled humidity […]

Chemical Stability (70° C./5% RH), decrease in purity [% decrease in purity]	Chemical Stability (70° C./75% RH), decrease in purity [% decrease in purity]	Chemical Stability (70° C./5% RH), decrease in purity (70° C./5% RH, HPLC) [% decrease in purity]	Chemical Stability (70° C./75% RH), decrease in purity (70° C./75% RH, HPLC) [% decrease in purity]	Structure (SMILES)
0.13	0.19	–	–	Nc1nccc(Sc2cnc(N3CCC4(CC3)Cc3ccccc3[C@H]4N)nn2)c1Cl [Example 3, (S)-1′-(6-((2-amino-3-chloropyridin-4-yl)thio)-1,2,4-triazin-3-yl)-1,3-dihydrospiro[indene-2,4′-piperidin]-1-amine Mono Succinate Salt Form 1]
–	–	0.25	0.09	Nc1nccc(Sc2cnc(N3CCC4(CC3)Cc3ccccc3[C@H]4N)nn2)c1Cl.Nc1nccc(Sc2cnc(N3CCC4(CC3)Cc3ccccc3[C@H]4N)nn2)c1Cl.O [Example 2, (S)-1′-(6-((2-amino-3-chloropyridin-4-yl)thio)-1,2,4-triazin-3-yl)-1,3-dihydrospiro[indene-2,4′-piperidin]-1-amine Free Base Hemihydrate (Form 1)]
